Experimental data published in patent publication US6156493A, “Modified-affinity streptavidin” (priority 1997, dated 2000).
Read-outs that look alike come from different tables or passages of the source.

Assays:
[1] = biological target: T1, Streptomyces avidinii core streptavidin variant W120F (Streptomyces avidinii, UniProt P22629, W144F); details: tight-binding limit; 0.2 nM total biotin
T1 construct: core streptavidin, defined as residues 13-139 of the naturally occurring protein; made in house
T1 sequence (P22629 37-163 W144F): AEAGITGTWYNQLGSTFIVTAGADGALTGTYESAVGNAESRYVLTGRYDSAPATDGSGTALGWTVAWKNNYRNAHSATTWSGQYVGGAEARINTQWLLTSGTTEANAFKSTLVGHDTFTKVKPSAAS
Procedure: (§1) The free ligand was then separated from the protein-bound ligand by either Microcon-30 or Centriprep-30 centrigual ultrafiltration devices (Amicon, Inc.). Typically, 0.1-1 ml of the free ligand solution or the protein-ligand mixture was added to 18 ml liquid scintillation cocktail (Ecolume, ICN Biomedicals, Inc., Costa Mesa, Calif.) and assayed on a liquid scintillation counter (Beckman Instruments, Inc., Fullerton, Calif.). The Ka was determined from a nonlinear curve fit of the fraction of protein-bound ligand versus the free protein concentration.
(§2) This assay provides a useful estimate of the Ka when the affinities lie between 10^6 -10^9.

[2] = biological target: T2, Streptomyces avidinii core streptavidin variant W108F (Streptomyces avidinii, UniProt P22629, W132F); assay: Equilibrium biotin-binding enthalpy and heat capacity (isothermal titrating calorimetry)
T2 construct: core streptavidin, defined as residues 13-139 of the naturally occurring protein; made in house
T2 sequence (P22629 37-163 W132F): as the sequence (P22629 37-163 W144F) above, with W96F, F108W counted along it
Procedure: (§3) The equilbrium binding enthalpies, ΔH°, and the heat capacities, ΔCp°, have also been […] with the streptavidin mutants (Table II). Heat capacities were determined as generally described in Murphy et al., Proteins: Structure, Function and Genetics 15:113-120 (1993), incorporated herein by reference.
(§4) The determination of ΔGr .noteq. by transition state analysis and the independent estimation of ΔG^0 from affinity measurements allows the drawing of free energy profiles for WT streptavidin and the Trp to Phe mutants. Similarly, the enthalpic energy profiles can be drawn from the equilibrium biotin-binding enthalpy (ΔH^0), independently determined by isothermal titrating calorimetry measurements, and ΔHr .noteq. available from transition state analysis of the temperature-dependent protein-ligand dissociation kinetics. The virtue of this analysis is that is allows the free energy barriers responsible for the off-rates of the different mutants to be delineated in terms of alterations in the transition state and/or the biotin-bound ground state, and further partitions these free energy changes into enthalpic and entropic components. Upon comparison with the results for WT streptavidin, the thermodynamic effects of mutating specific residues can then be mapped, providing considerable insight into the structure and energetics of the transition state.

[3] = biological target: T3, Streptomyces avidinii core streptavidin variant W120A (Streptomyces avidinii, UniProt P22629, W144A); assay: as above
T3 construct: core streptavidin, defined as residues 13-139 of the naturally occurring protein; made in house
T3 sequence (P22629 37-163 W144A): as the sequence (P22629 37-163 W144F) above, with F108A counted along it
Procedure: as §3, §4

[4] = biological target: T1, Streptomyces avidinii core streptavidin variant W120F; assay: as above
Procedure: as §3, §4

[5] = biological target: T4, Streptomyces avidinii core streptavidin variant W79A (Streptomyces avidinii, UniProt P22629, W103A); assay: as above
T4 construct: core streptavidin, defined as residues 13-139 of the naturally occurring protein; made in house
T4 sequence (P22629 37-163 W103A): as the sequence (P22629 37-163 W144F) above, with W67A, F108W counted along it
Procedure: as §3, §4

[6] = biological target: T5, Streptomyces avidinii core streptavidin variant W79F (Streptomyces avidinii, UniProt P22629, W103F); assay: as above
T5 construct: core streptavidin, defined as residues 13-139 of the naturally occurring protein; made in house
T5 sequence (P22629 37-163 W103F): as the sequence (P22629 37-163 W144F) above, with W67F, F108W counted along it
Procedure: as §3, §4

[7] = biological target: T6, Streptomyces avidinii core streptavidin, wild type (WT) (Streptomyces avidinii, UniProt P22629); assay: as above
T6 construct: core streptavidin, defined as residues 13-139 of the naturally occurring protein; made in house
T6 sequence (P22629 37-163): as the sequence (P22629 37-163 W144F) above, with F108W counted along it
Procedure: as §3, §4

[8] = biological target: T2, Streptomyces avidinii core streptavidin variant W108F; assay: Streptavidin-biotin dissociation rate (3H biotin, cold biotin chase, ultrafiltration) and transition state analysis; format: binding
Procedure: (§5) Fifty μl of the filtrate were mixed with 10 ml scintillation cocktail in triplicate and assayed for radioactivity in a liquid scintillation counter (LS-7000, Beckman Instruments, Fullerton, Calif.). […] Standard deviations were determined based on three independent measurements.

[9] = biological target: T1, Streptomyces avidinii core streptavidin variant W120F; assay: as above; format: binding
Procedure: as §5

[10] = biological target: T5, Streptomyces avidinii core streptavidin variant W79F; assay: as above; format: binding
Procedure: as §5

[11] = biological target: T6, Streptomyces avidinii core streptavidin, wild type (WT); assay: as above; format: binding
Procedure: as §5

[12] = biological target: T6, Streptomyces avidinii core streptavidin, wild type (WT); assay: Equilibrium binding of 3H-biotin (ultrafiltration spin-column assay); details: tight-binding limit; 0.2 nM total biotin; isotherm identical to W120F
Procedure: as §1, §2

[13] = biological target: T7, Streptomyces avidinii core streptavidin (residues 13-139), wild type (WT) (Streptomyces avidinii, UniProt P22629); assay: ELISA concentration-dependent binding to biotin/BSA or iminobiotin/BSA; details: ligand iminobiotin/BSA, EC50 is protein concentration, read-out: Absolute EC50 (converted)
T7 construct: core streptavidin, defined as residues 13-139 of the naturally occurring protein; made in house
T7 sequence (P22629 37-163): as the sequence (P22629 37-163 W144F) above, with F108W counted along it
Procedure: ELISA Assays. […] 2-Iminobiotin conjugated to bovine serum albumin (iminobiotin/BSA) was synthesized by reacting a twenty-fold molar excess of 2-iminobiotin N-hydroxysuccinimide ester (sigma) with 100 mg BSA in 100 mM NaHCO3, pH 8.3 for 12 hr at 4° C. with end-over-end stirring, followed by dialysis and gel filtration (G-25, Pharmacia) to separate iminobiotin/BSA from unreacted 2-iminobiotin. […] The next day the microwell plates were incubated with 200 μl per well of blocking buffer at pH 8.0 or pH 10.0 (50 mM sodium phosphate, pH 8.0 or 50 mM Na2 CO3, pH 10.0/100 mM NaCl/0.5% (w/v) BSA/0.05% (v/v) Tween-20) for at least 2 hr at room temperature and then incubated in ten-fold serial dilutions of 100 μg/ml WT streptavidin or mutants (100 μl/well) for 2 hr at room temperature, rinsed with blocking buffer at pH 8.0 or pH 10.0 (200 μl/well), and incubated for 1 hr at room temperature in 2×10^4 dilution of primary antistreptavidin antibodies (Sigma) in pH 8.0 or pH 10.0 blocking buffer (100 μl/well). […]
where a, b, c, and d are the adjustable fitting parameters; x=streptavidin concentration (μg/ml); y=absorbance at 405 nm. […]

[14] = biological target: Streptomyces avidinii core streptavidin Trp→Ala mutants (WxA: W79A, W108A, W120A); assay: ELISA concentration-dependent binding to iminobiotin/BSA; details: ligand iminobiotin/BSA; pH 8/10; lower bound
Procedure: (§6) ELISA Assays. […] 2-Iminobiotin conjugated to bovine serum albumin (iminobiotin/BSA) was synthesized by reacting a twenty-fold molar excess of 2-iminobiotin N-hydroxysuccinimide ester (sigma) with 100 mg BSA in 100 mM NaHCO3, pH 8.3 for 12 hr at 4° C. with end-over-end stirring, followed by dialysis and gel filtration (G-25, Pharmacia) to separate iminobiotin/BSA from unreacted 2-iminobiotin. […] The next day the microwell plates were incubated with 200 μl per well of blocking buffer at pH 8.0 or pH 10.0 (50 mM sodium phosphate, pH 8.0 or 50 mM Na2 CO3, pH 10.0/100 mM NaCl/0.5% (w/v) BSA/0.05% (v/v) Tween-20) for at least 2 hr at room temperature and then incubated in ten-fold serial dilutions of 100 μg/ml WT streptavidin or mutants (100 μl/well) for 2 hr at room temperature, rinsed with blocking buffer at pH 8.0 or pH 10.0 (200 μl/well), and incubated for 1 hr at room temperature in 2×10^4 dilution of primary antistreptavidin antibodies (Sigma) in pH 8.0 or pH 10.0 blocking buffer (100 μl/well). The plates were rinsed three times with 200 μl per well blocking buffer at the assay pH, incubated with secondary anti-IgG/alkaline phosphatase conjugate (Sigma) for 1 hr at room temperature, rinsed three times with blocking buffer, and assayed for alkaline phosphatase activity at pH 10.0. Every plate assayed had triplicates for each protein concentration. The data were processed on Mathcad (Mathworks) to determine the equivalent bulk concentration at 50% saturation of binding (EC50) values using a published 4-parameter nonlinear fitting algorithm shown below (Jin et al., J. Mol. Biol. 226: 851-865 (1992)):
(§7) y=a+(d-a)/[1+exp (b(c-x))]
(§8) where a, b, c, and d are the adjustable fitting parameters; x=streptavidin concentration (μg/ml); y=absorbance at 405 nm. Absolute EC50 in μg ml^-1 are given by the value of the parameter c for the best fit of the fitting function to the binding isotherm. Relative EC50 values reported in Table I are EC50 (mutant)/EC50 (WT streptavidin).

[15] = biological target: T2, Streptomyces avidinii core streptavidin variant W108F; assay: as above; details: for EC50: Absolute EC50, ligand iminobiotin/BSA
Procedure: as §6, §7, §8

[16] = biological target: T1, Streptomyces avidinii core streptavidin variant W120F; assay: as above; details: Absolute EC50, ligand iminobiotin/BSA
Procedure: as §6, §7, §8

[17] = biological target: T5, Streptomyces avidinii core streptavidin variant W79F; assay: as above; details: for EC50: Absolute EC50, ligand iminobiotin/BSA
Procedure: as §6, §7, §8

[18] = biological target: Streptomyces avidinii streptavidin, wild type (WT); assay: Known Ka of ligand-WT streptavidin partners used for the analysis; format: binding; details: pH 10.0; estimated from experimentally-determined value for iminobiotin/avidin
Source text: Streptavidin, a protein produced by Streptomyces avidinii, forms a very strong and specific non-covalent complex with the water soluble vitamin biotin. […] See, Green, Adv. Prot. Chem. 29: 85-143 (1975).
Order of magnitude determinations of ΔKa for the mutants were estimated from the EC50, given the known Ka 's of some of these ligand-protein partners. […] These numbers are further supported by the independently determined biotin-binding affinities of the W79A and W120A mutants, which agree well with the ELISA estimates.

[19] = biological target: T3, Streptomyces avidinii core streptavidin variant W120A; assay: Affinity of W120A for 2-iminobiotin; format: binding
[20] = equilibrium biotin binding enthalpy
[21] = heat capacity of biotin binding
[22] = biotin-bound ground state relative to WT
[23] = activation barrier of biotin dissociation
[24] = activation enthalpy of biotin dissociation, transition state analysis

## O=C(O)CCCC[C@@H]1SC[C@@H]2NC(=O)N[C@@H]21 [biotin]
[1]
  Ka (biotin): > 10^9
[2]; [20]
  ΔH°: -23.5 kcal/mol
[2]; [21]
  ΔCp°: -386 cal/molK
[3]; [20]
  ΔH°: -12.8 kcal/mol
[3]; [21]
  ΔCp°: -272 cal/molK
[4]; biotin binding, relative to WT
  TΔΔS° (entropy term): +2.4 kcal mol^-1
  ΔΔH°: +5.1 kcal mol^-1
[4]; [22]
  ΔΔG°: +2.7 kcal mol^-1
[4]; [20]
  ΔH°: -19.4 kcal/mol
[4]; [21]
  ΔCp°: -303 cal/molK
[5]; [20]
  ΔH°: -18.5 kcal/mol
[5]; [21]
  ΔCp°: -357 cal/molK
[6]; biotin binding, relative to WT
  TΔΔS°: -2.4 kcal/mol
  ΔΔH°: -1.5 kcal/mol
[6]; [22]
  ΔΔG°: +0.9 kcal mol^-1
[6]; [20]
  ΔH°: -25.9 kcal/mol
[6]; [21]
  ΔCp°: -266 cal/molK
[7]; [20]
  ΔH°: -24.5 kcal/mol
[7]; [21]
  ΔCp°: -345 cal/molK
[8]; T = 298K, biotin dissociation
  TΔSr≠: 13.8 ± 0.9 kal mol^-1
[8]; [23]
  ΔGr≠: 22.7 ± 1.3 kal mol^-1
[8]; [24]
  ΔHr≠: 36.5 ± 0.9 kcal/mol
[8]; biotin dissociation
  ΔΔGr≠ = ΔGr≠(mutant) - ΔGr≠(WT): -1.7 kal mol^-1
[9]; T = 298K, biotin dissociation
  TΔSr≠: 6.6 ± 1.0 kal mol^-1
[9]; [23]
  ΔGr≠: 21.9 ± 1.4 kal mol^-1
[9]; biotin dissociation
  ΔΔGr≠ = ΔGr≠(mutant) - ΔGr≠(WT): -2.5 kal mol^-1
[10]; T = 298K, biotin dissociation
  TΔSr≠: 11.6 ± 0.6 kal mol^-1
[10]; [23]
  ΔGr≠: 23.3 ± 0.8 kal mol^-1
[10]; [24]
  ΔHr≠: 34.9 ± 0.6 kcal/mol
[10]; biotin dissociation
  ΔΔGr≠ = ΔGr≠(mutant) - ΔGr≠(WT): -1.1 kal mol^-1
[11]
  ΔGr≠ (activation barrier for biotin dissociation): 24.4 kcal/mol
[11]; T = 298K, biotin dissociation
  TΔSr≠: 7.6 ± 2.1 kal mol^-1
[11]; [23]
  ΔGr≠: 24.4 ± 2.4 kal mol^-1
[11]; biotin dissociation
  t1/2 of biotin complex: 35 h
  ΔΔGr≠ = ΔGr≠(mutant) - ΔGr≠(WT): 0 kal mol^-1
[12]
  Ka (biotin): > 10^9

## N=C1N[C@H]2[C@H](CS[C@H]2CCCCC(=O)O)N1 [2-iminobiotin]
[13]; pH 8
  EC50: 0.189 µM
[13]; pH 10
  EC50: 0.214 µM
[14]
  Absolute EC50: ≥ 100 µg/mL
[15]
  Kd: 9260 to 9350 µM
[15]; pH 8
  EC50: 39.5 µM
[15]; pH 10
  EC50: 0.493 µM
[16]; pH 8
  EC50: 42.2 µM
[16]; pH 10
  EC50: 16.6 µM
[17]
  Kd: 9260 to 9350 µM
[17]; pH 8
  EC50: 34 µM
[17]; pH 10
  EC50: 0.575 µM
[18]
  Ka for iminobiotin/WT streptavidin: 10^8 M^-1
[19]
  affinity for 2-iminobiotin: < 10^3 M^-1
